Source: PMC3656107, “Polymorphisms in the F8 Gene and MHC-II Variants as Risk Factors for the Development of Inhibitory Anti-Factor VIII Antibodies during the Treatment of Hemophilia A: A Computational Assessment” (PLoS Computational Biology, 2013)

Assays:
[1] = molecular target: T1, MHC-II DRB1*15:03 (Homo sapiens, UniProt P01903+P01911, Y59H); assay: Cell-free REVEAL class II binding assay; details: signal of test peptide as percentage of allele-specific positive control peptide, fluorescence, conformation-specific monoclonal antibody
T1 construct: purchased ProImmune
T1 sequence (P01903 26-254, other chains not shown): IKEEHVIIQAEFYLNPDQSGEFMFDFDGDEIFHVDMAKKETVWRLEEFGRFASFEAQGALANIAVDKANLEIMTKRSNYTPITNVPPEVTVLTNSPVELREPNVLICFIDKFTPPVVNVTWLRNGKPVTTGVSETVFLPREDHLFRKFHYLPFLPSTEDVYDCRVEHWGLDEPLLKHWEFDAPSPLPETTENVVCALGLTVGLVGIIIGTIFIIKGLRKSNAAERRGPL
How it was run: (§1)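 Test peptides incubated with MHC-II protein; correctly folded complexes then detected with a specific monoclonal antibody giving a fluorescence signal. Each peptide scored quantitatively against that allele's positive control epitope, expressed as a percentage.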

[2] = molecular target: T2, MHC-II DRB1*04:01 (Homo sapiens, UniProt P01903+P01911, A100K/A169T/F76Y/I96L/K127E/L162R/M171V/N62H/P40V/Q125Y/R42H/S133A/S149N/S66Y/V115G/V209L/W38E); assay: Cell-free REVEAL class II binding assay; details: signal of test peptide as percentage of allele-specific positive control peptide, fluorescence, conformation-specific monoclonal antibody
How it was run: as §1

[3] = molecular target: T3, MHC-II DRB1*15:01 (Homo sapiens, UniProt P01903+P01911); assay: Cell-free REVEAL class II binding assay; details: signal of test peptide as percentage of allele-specific positive control peptide, fluorescence, conformation-specific monoclonal antibody
T3 construct: purchased ProImmune
How it was run: as §1

[4] = molecular target: T4, MHC-II DRB1*03:01 (Homo sapiens, UniProt P01903+P01911, A100K/A102G/A103R/A169T/F55Y/I96L/K41T/L162R/M171V/P40S/Q125H/Q178H/Q39Y/R42S/S66N/T106N/T262R/W38E/Y61H); assay: Cell-free REVEAL class II binding assay; details: signal of test peptide as percentage of allele-specific positive control peptide, fluorescence, conformation-specific monoclonal antibody
T4 sequence (P01903 26-254 limits assumed, other chains not shown): as the sequence (P01903 26-254, other chains not shown) above
How it was run: as §1

[5] = molecular target: T5, MHC-II DRB1*11:01 (Homo sapiens, UniProt P01903+P01911, A100R/A169T/A87E/I96F/K41T/L162R/M171V/P40S/Q125H/Q178H/Q39Y/Q99D/R42S/S66Y/T262R/V115G/W38E); assay: Cell-free REVEAL class II binding assay; details: signal of test peptide as percentage of allele-specific positive control peptide, fluorescence, conformation-specific monoclonal antibody
T5 sequence (P01903 26-254 limits assumed, other chains not shown): as the sequence (P01903 26-254, other chains not shown) above
How it was run: as §1

[6] = molecular target: T6, MHC-II DRB1*07:01 (Homo sapiens, UniProt P01903+P01911, A100R/A102G/A103Q/D57E/D86V/E43K/F76Y/K127E/L162R/M171V/P40G/Q125H/Q99D/R33Q/R42Y/R54Q/S133A/S66F/T210M/V115G/Y107V/Y59L/Y89S); assay: Cell-free REVEAL class II binding assay; details: signal of test peptide as percentage of allele-specific positive control peptide, fluorescence, conformation-specific monoclonal antibody
How it was run: as §1

[7] = molecular target: T1, MHC-II DRB1*15:03; assay: Cell-free REVEAL class II stability assay; details: half-life of peptide-MHC-II complex (h, capped at 120) x Binding Score / 100, conformational ELISA
How it was run: (§2)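 On-rates followed over 96 hr at 10°C and off-rates from dissociating complexes, each sampled at set time points and detected by conformational anti-HLA ELISA, then fitted to one-phase association or dissociation curves to give t1/2. Stability score = half-life × Binding Score / 100; allele-specific positive control peptides.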

[8] = molecular target: T2, MHC-II DRB1*04:01; assay: Cell-free REVEAL class II stability assay; details: half-life of peptide-MHC-II complex (h, capped at 120) x Binding Score / 100, conformational ELISA
How it was run: as §2

[9] = molecular target: T3, MHC-II DRB1*15:01; assay: Cell-free REVEAL class II stability assay; details: half-life of peptide-MHC-II complex (h, capped at 120) x Binding Score / 100, conformational ELISA
How it was run: as §2

[10] = molecular target: T4, MHC-II DRB1*03:01; assay: Cell-free REVEAL class II stability assay; details: half-life of peptide-MHC-II complex (h, capped at 120) x Binding Score / 100, conformational ELISA
How it was run: as §2

[11] = molecular target: T5, MHC-II DRB1*11:01; assay: Cell-free REVEAL class II stability assay; details: half-life of peptide-MHC-II complex (h, capped at 120) x Binding Score / 100, conformational ELISA
How it was run: as §2

[12] = molecular target: T6, MHC-II DRB1*07:01; assay: Cell-free REVEAL class II stability assay; details: half-life of peptide-MHC-II complex (h, capped at 120) x Binding Score / 100, conformational ELISA
How it was run: as §2

Sequence | Binding Score [1] [%] | Binding Score [2] [%] | Binding Score [3] [%] | Binding Score [4] [%] | Binding Score [5] [%] | Binding Score [6] [%] | Stability Index [7] | Stability Index [8] | Stability Index [9] | Stability Index [10] | Stability Index [11] | Stability Index [12]
SLHAVGVSYWKASEG [synthetic wild type FVIII 15 mer peptide] | 0.7 | 1.3 | 18.1 | 1.3 | 0.3 | 0.2 | 0.0 | 0.1 | 1.4 | 0.1 | 0.0 | 0.0
SQFIIMYSLDGKKWQ [synthetic wild type FVIII 15 mer peptide] | 14.6 | 38.1 | 1455.4 | 4.8 | 100.8 | 0.0 | 16.4 | 11.8 | 1746.5 | 0.5 | 27.9 | 0.0
SRPYNIYPHGITDVR [synthetic wild type FVIII 15 mer peptide, region of ns-SNP R484H] | 0.2 | 0.2 | 0.1 | 0.1 | 12.0 | 0.0 | 0.1 | 0.0 | 0.1 | 0.0 | 0.4 | 0.0
SYDGAYAPVLQDFRS [synthetic wild type FVIII 15 mer peptide, region of ns-SNP D1241E] | 0.0 | 0.4 | 0.0 | 1.7 | 0.1 | 0.0 | 0.0 | 0.0 | 0.0 | 0.1 | 0.0 | 0.0
SYWKASEGAEYDDQT [synthetic wild type FVIII 15 mer peptide] | 0.0 | 1.5 | 0.0 | 0.0 | 2.8 | 0.0 | 0.0 | 0.2 | 0.0 | 0.0 | 0.0 | 0.0
TKSDPRCLTRYYSSF [synthetic wild type FVIII 15 mer peptide] | 26.8 | 0.8 | 37.9 | 12.6 | 23.1 | 0.0 | 1.6 | 0.1 | 45.5 | 2.4 | 0.8 | 0.0
TLTLFPFSGETVFMS [synthetic wild type FVIII 15 mer peptide] | 0.4 | 7.3 | 41.4 | 0.0 | 0.1 | 0.0 | 0.0 | 0.6 | 2.3 | 0.0 | 0.0 | 0.0
TRYLRIHPQSWVHQI [synthetic wild type FVIII 15 mer peptide] | 25.4 | 8.2 | 819.2 | 0.0 | 49.4 | 34.0 | 30.5 | 0.9 | 983.1 | 0.0 | 5.3 | 40.8
TVEDGPTKSDPRCLT [synthetic wild type FVIII 15 mer peptide] | 0.0 | 0.2 | 0.0 | 0.2 | 0.0 | 0.0 | 0.0 | 0.0 | 0.0 | 0.0 | 0.0 | 0.0
VVNSLDPPLLTRYLR [synthetic wild type FVIII 15 mer peptide] | 2.2 | 1.2 | 95.8 | 2.7 | 0.2 | 0.0 | 0.1 | 0.1 | 7.8 | 0.4 | 0.0 | 0.0
YIRLHPTHYSIRSTL [synthetic wild type FVIII 15 mer peptide] | 234.7 | 59.3 | 1195.7 | 7.9 | 174.3 | 17.2 | 281.7 | 61.0 | 1434.9 | 2.4 | 30.2 | 20.6
